The NIST ThermoML archive (doi:10.1021/acs.jced.8b00229)

Settings: Liquid, Vibrating tube method

C=CCCCC [hex-1-ene]
Settings	mass density [kg/m3]
283.57 K, 1000 kPa	683.2
283.57 K, 3000 kPa	685.2
283.57 K, 5000 kPa	687.2
283.57 K, 10000 kPa	691.9
283.57 K, 15000 kPa	696.4
283.57 K, 20000 kPa	700.6
283.57 K, 25000 kPa	704.7
283.57 K, 30000 kPa	708.5
283.57 K, 35000 kPa	712.4
283.57 K, 45000 kPa	719.4
283.58 K, 500 kPa	682.3
283.58 K, 40000 kPa	714.7
283.58 K, 50000 kPa	722.4
283.58 K, 55000 kPa	725.5
283.58 K, 60000 kPa	728.6
283.58 K, 70000 kPa	734.4
283.58 K, 80000 kPa	739.9
283.59 K, 100 kPa	682.2
283.59 K, 90000 kPa	745.2
283.59 K, 100000 kPa	750.1
293.5 K, 1000 kPa	674.1
293.51 K, 100 kPa	673.1
293.51 K, 500 kPa	673.5
293.51 K, 3000 kPa	676.3
293.51 K, 5000 kPa	678.4
293.51 K, 10000 kPa	683.5
293.51 K, 20000 kPa	692.8
293.51 K, 25000 kPa	697
293.51 K, 30000 kPa	701.1
293.51 K, 35000 kPa	704.9
293.51 K, 55000 kPa	718.9
293.51 K, 60000 kPa	722.1
293.51 K, 70000 kPa	728.2
293.51 K, 80000 kPa	733.8
293.51 K, 90000 kPa	739.3
293.51 K, 100000 kPa	744.4
293.52 K, 15000 kPa	688.3
293.52 K, 40000 kPa	708.6
293.52 K, 45000 kPa	712.5
293.52 K, 50000 kPa	715.6
303.4 K, 500 kPa	664.1
303.4 K, 1000 kPa	664.6
303.41 K, 100 kPa	663.5
303.41 K, 3000 kPa	667
303.41 K, 5000 kPa	669.3
303.41 K, 10000 kPa	674.8
303.41 K, 15000 kPa	679.9
303.41 K, 20000 kPa	684.7
303.41 K, 25000 kPa	689.2
303.42 K, 30000 kPa	693.5
303.42 K, 35000 kPa	698.2
303.42 K, 40000 kPa	701.5
303.42 K, 45000 kPa	705.8
303.42 K, 50000 kPa	708.8
303.42 K, 55000 kPa	712.8
303.42 K, 60000 kPa	715.5
303.42 K, 70000 kPa	721.8
303.42 K, 80000 kPa	727.7
303.42 K, 90000 kPa	733.2
303.42 K, 100000 kPa	738.5
313.34 K, 100 kPa	654.1
313.34 K, 20000 kPa	676.6
313.35 K, 500 kPa	654.2
313.35 K, 1000 kPa	655.3
313.35 K, 3000 kPa	657.9
313.35 K, 5000 kPa	660.3
313.35 K, 10000 kPa	666.1
313.35 K, 15000 kPa	671.6
313.35 K, 25000 kPa	681.4
313.35 K, 30000 kPa	685.9
313.35 K, 35000 kPa	690.2
313.35 K, 40000 kPa	694.3
313.35 K, 45000 kPa	698.3
313.35 K, 50000 kPa	701.9
313.35 K, 55000 kPa	705.7
313.35 K, 60000 kPa	709
313.35 K, 80000 kPa	721.9
313.35 K, 90000 kPa	727.6
313.35 K, 100000 kPa	733.2
313.36 K, 70000 kPa	715.9
323.18 K, 100 kPa	644.5
323.18 K, 60000 kPa	702.5
323.19 K, 500 kPa	644.9
323.19 K, 1000 kPa	645.8
323.19 K, 3000 kPa	648.6
323.19 K, 5000 kPa	651.3
323.19 K, 10000 kPa	657.6
323.19 K, 50000 kPa	695.2
323.19 K, 55000 kPa	699.3
323.2 K, 15000 kPa	663.4
323.2 K, 20000 kPa	668.8
323.2 K, 30000 kPa	678.6
323.2 K, 35000 kPa	683.4
323.2 K, 40000 kPa	687.3
323.2 K, 70000 kPa	709.4
323.2 K, 80000 kPa	715.7
323.2 K, 90000 kPa	721.6
323.2 K, 100000 kPa	727.2
323.21 K, 25000 kPa	673.8
323.21 K, 45000 kPa	691.8
333.08 K, 500 kPa	635.3
333.08 K, 1000 kPa	636
333.08 K, 3000 kPa	639.1
333.08 K, 5000 kPa	642
333.08 K, 10000 kPa	648.8
333.09 K, 15000 kPa	655
333.09 K, 20000 kPa	660.8
333.09 K, 25000 kPa	666.1
333.09 K, 30000 kPa	671.1
333.09 K, 35000 kPa	676.4
333.09 K, 40000 kPa	680.2
333.09 K, 45000 kPa	685.1
333.09 K, 50000 kPa	688.5
333.09 K, 55000 kPa	693
333.09 K, 60000 kPa	696.1
333.09 K, 70000 kPa	703.3
333.09 K, 80000 kPa	709.8
333.09 K, 90000 kPa	715.9
333.09 K, 100000 kPa	721.7
342.96 K, 500 kPa	625.6
342.96 K, 1000 kPa	626.4
342.97 K, 3000 kPa	629.8
342.97 K, 5000 kPa	633
342.97 K, 10000 kPa	640.3
342.97 K, 15000 kPa	647
342.97 K, 20000 kPa	653.2
342.97 K, 25000 kPa	658.8
342.97 K, 30000 kPa	664.1
342.97 K, 35000 kPa	669.6
342.97 K, 40000 kPa	673.8
342.97 K, 45000 kPa	678.8
342.97 K, 50000 kPa	682.3
342.97 K, 55000 kPa	687
342.97 K, 60000 kPa	690.4
342.97 K, 70000 kPa	697.6
342.97 K, 80000 kPa	704.3
342.97 K, 90000 kPa	710.7
342.97 K, 100000 kPa	716.6
352.85 K, 500 kPa	615.7
352.85 K, 1000 kPa	617
352.85 K, 3000 kPa	620.7
352.85 K, 5000 kPa	624.2
352.85 K, 15000 kPa	639.4
352.86 K, 10000 kPa	632.2
352.86 K, 20000 kPa	645.7
352.86 K, 25000 kPa	651.7
352.86 K, 30000 kPa	657.4
352.86 K, 35000 kPa	662.8
352.86 K, 40000 kPa	667.4
352.86 K, 45000 kPa	672.4
352.86 K, 50000 kPa	676.6
352.86 K, 55000 kPa	680.9
352.86 K, 60000 kPa	684.8
352.86 K, 70000 kPa	692.4
352.86 K, 80000 kPa	699.4
352.86 K, 90000 kPa	705.9
352.86 K, 100000 kPa	712
362.7 K, 500 kPa	604.1
362.7 K, 1000 kPa	605.5
362.7 K, 100000 kPa	705.7
362.71 K, 3000 kPa	609.5
362.71 K, 5000 kPa	613.3
362.71 K, 10000 kPa	622
362.71 K, 15000 kPa	629.7
362.71 K, 20000 kPa	636.7
362.71 K, 25000 kPa	643
362.71 K, 30000 kPa	648.9
362.71 K, 35000 kPa	654.7
362.71 K, 40000 kPa	659.6
362.71 K, 45000 kPa	664.8
362.71 K, 50000 kPa	669
362.71 K, 55000 kPa	673.7
362.71 K, 60000 kPa	677.6
362.71 K, 70000 kPa	685.4
362.71 K, 80000 kPa	692.6
362.71 K, 90000 kPa	699.3
